The assay has as its system LNCaP and PC-3 cells. The assay can be described thus: Mitochondrial membrane potential (mitoMP). The assay is classed as cell-based. As to the method: FIG. 7. Pharmacological inhibition of HSP60-ClpP interaction induces metabolic stress in PCa cells. (A) LNCaP and PC-3 cells were pre-treated with either rotenone or antimycin-A followed by DCEM1 treatment and mitochondrial ROS was analyzed as described in material and methods (data represented as fold change compared to control). In (A), the bars in each series from left to right are control, DCEM1, Rot+DCEM1, Anti A+DCEM1, Rot, and Anti A (B) ClpP protein was over-expressed in LNCaP and PC-3 cells followed by DCEM1 treatment and mitochondrial ROS was analyzed as described in material and methods (Data represented as fold change compared to control). […] (C) ClpP protein was over-expressed in LNCaP and PC-3 cells followed by DCEM1 treatment and level of poly-ubiquitinated protein was analyzed by western blotting. (D) ClpP protein was over-expressed in LNCaP and PC-3 cells followed by DCEM1 treatment and DEVDase activity was analyzed as described in material and methods (Data represented as fold change compared to control). […] (E) Mitochondrial membrane potential (mitoMP) was analyzed in LNCaP and PC-3 cells treated with DCEM1 as described in material and methods (Data represented as fold change compared to control). […] (F) ATP level was analyzed in LNCaP and PC-3 cells treated with DCEM1 as described in material and methods (Data represented as fold change compared to control). […]

Consider 1 molecule from patent US20240009174A1, “METHODS FOR DISRUPTING MITOCHONDRIAL UNFOLDED PROTEIN RESPONSE” (Health Research, Inc., priority 2020, published 2024).

With `CCOc1cc(CNCc2nc3ccccc3[nH]2)ccc1OCc1cccs1` [DCEM1], the mitochondrial membrane potential entry is “robustly depolarized mitochondrial membrane”.
